Measurements published in patent US12582641B2, “Sulfur-containing compound based on glutarimide skeleton and application thereof” (SHANGHAITECH UNIVERSITY, priority 2019, dated 2026).
Like-named read-outs stand apart in the source and are kept apart here.

Tested on: MM.1S cells
Assay: Proliferation inhibition (IC50) in MM.1S cells, cell viability assay
Conditions: Homo sapiens, MM1.S, 72 h
[1] = read-out: IC50 (nM), proliferation inhibitory activity of MM.1S cells (half inhibitory concentration)

| IC50 [1] [nM] | IC50 (read-out: IC50 against MM.1S cells (proliferation inhibition)) [nM] | Structure (SMILES) |
| --- | --- | --- |
| 2.1 ± 0.67 |  | CCCCCCCCSc1cccc2c1CN(C1CCC(=O)NC1=O)C2=O (stereo not shown) [SIAIS1216025, 3-(4-(octylthio)-1-oxoisoindolin-2-yl)piperidine-2,6-dione] |
| 1.41 |  | O=C1CCC(N2Cc3c(SCCCCCCCCSc4cccc5c4CN(C4CCC(=O)NC4=O)C5=O)cccc3C2=O)C(=O)N1 (stereo not shown) [SIAIS1216137B, 3,3′-((octane-1,8-diylbis(sulfanediyl))bis(1-oxoisoindoline-4,2-diyl))bis(piperidine-2,6-dione)] |
| 0.17 ± 0.04 |  | O=C1CCC(N2Cc3c(SCCCCCCCCN4CCOCC4)cccc3C2=O)C(=O)N1 (stereo not shown) [SIAIS1216143, 3-(4-((8-morpholinooctyl)thio)-1-oxoisoindolin-2-yl)piperidine-2,6-dione] |
| 3.86 ± 0.87 |  | O=C1CCC(N2Cc3c(SCCCCCCCCN4CCNCC4)cccc3C2=O)C(=O)N1 (stereo not shown) [SIAIS1216145, 3-(1-oxo-4-((8-(piperazin-1-yl)octyl)thio)isoindolin-2-yl)piperidine-2,6-dione] |
| 0.32 ± 0.15 |  | CN(C)CCCCCCCCSc1cccc2c1CN(C1CCC(=O)NC1=O)C2=O (stereo not shown) [SIAIS1216149, 3-(4-((8-(dimethylamino)octyl)thio)-1-oxoisoindolin-2-yl)piperidine-2,6-dione] |
| 0.33 ± 0.15 |  | CNCCCCCCCCSc1cccc2c1CN(C1CCC(=O)NC1=O)C2=O (stereo not shown) [SIAIS1216151, 3-(4-((8-(methylamino)octyl)thio)-1-oxoisoindolin-2-yl)piperidine-2,6-dione] |
| 0.12 ± 0.03 | ~0.12 | O=C1CCC(N2Cc3c(SCCCCCCCCN4CCCCC4)cccc3C2=O)C(=O)N1 (stereo not shown) [SIAIS1220009, 3-(1-oxo-4-((8-(piperidin-1-yl)octyl)thio)isoindolin-2-yl)piperidine-2,6-dione] |
| 0.57 ± 0.21 |  | CN1CCN(CCCCCCCCSc2cccc3c2CN(C2CCC(=O)NC2=O)C3=O)CC1 (stereo not shown) [SIAIS1220011, 3-(4-((8-(4-methylpiperazin-1-yl)octyl)thio)-1-oxoisoindolin-2-yl)piperidine-2,6-dione] |
| 2.77 |  | O=C1CCC(N2Cc3c(SCCCCCCCCN4CCCNCC4)cccc3C2=O)C(=O)N1 (stereo not shown) [SIAIS1220017, 3-(4-((8-(1,4-diazepan-1-yl)octyl)thio)-1-oxoisoindolin-2-yl)piperidine-2,6-dione] |
| 0.16 ± 0.05 |  | CC(C)N(CCCCCCCCSc1cccc2c1CN(C1CCC(=O)NC1=O)C2=O)C(C)C (stereo not shown) [SIAIS1220021, 3-(4-((8-(diisopropylamino)octyl)thio)-1-oxoisoindolin-2-yl)piperidine-2,6-dione] |
| 0.46 ± 0.19 |  | O=C1CCC(N2Cc3c(SCCCCCCCCCCN4CCOCC4)cccc3C2=O)C(=O)N1 (stereo not shown) [SIAIS1220023, 3-(4-((10-morpholinodecyl)thio)-1-oxoisoindolin-2-yl)piperidine-2,6-dione] |

The remaining lines, values behind:

| Structure (SMILES) | IC50 [1] [nM] | IC50 (read-out: IC50 against MM.1S cells (proliferation inhibition)) [nM] |
| --- | --- | --- |
| O=C1CCC(N2Cc3c(SCc4nc(CN5CC6CCCCC6C5)cs4)cccc3C2=O)C(=O)N1 (stereo not shown) [SIAIS313188, 3-(4-(((4-((hexahydro-1H-isoindol-2(3H)-yl)methyl)thiazol-2-yl)methyl)thio)-1-oxoisoindolin-2-yl)piperidine-2,6-dione] | 1.43 ± 0.3 |  |
| O=C1CCC(N2Cc3c(SCc4nc(CN5CCSCC5)cs4)cccc3C2=O)C(=O)N1 (stereo not shown) [SIAIS355001, 3-(1-oxo-4-(((4-(thiomorpholinomethyl)thiazol-2-yl)methyl)thio)isoindolin-2-yl)piperidine-2,6-dione] | 2.51 ± 0.54 |  |
| CCN(CC)Cc1csc(CSc2cccc3c2CN(C2CCC(=O)NC2=O)C3=O)n1 (stereo not shown) [SIAIS355002, 3-(4-(((4-((diethylamino)methyl)thiazol-2-yl)methyl)thio)-1-oxoisoindolin-2-yl)piperidine-2,6-dione] | 1.07 ± 0.39 |  |
| O=C1CCC(N2Cc3c(SCc4nc(CNC5CCCCC5)cs4)cccc3C2=O)C(=O)N1 (stereo not shown) [SIAIS355003, 3-(4-(((4-((cyclohexylamino)methyl)thiazol-2-yl)methyl)thio)-1-oxoisoindolin-2-yl)piperidine-2,6-dione] | 0.75 ± 0.1 |  |
| O=C1CCC(N2Cc3c(SCc4nc(CNCC5CCCCC5)cs4)cccc3C2=O)C(=O)N1 (stereo not shown) [SIAIS355004, 3-(4-(((4-(((cyclohexylmethyl)amino)methyl)thiazol-2-yl)methyl)thio)-1-oxoisoindolin-2-yl)piperidine-2,6-dione] | 0.61 ± 0.42 |  |
| CSc1cccc2c1CN(C1CCC(=O)NC1=O)C2=O (stereo not shown) [SIAIS1210071, 3-(4-(methylthio)-1-oxoisoindolin-2-yl)piperidine-2,6-dione] | 3.37 ± 0.48 |  |
| CCCCCSc1cccc2c1CN(C1CCC(=O)NC1=O)C2=O (stereo not shown) [SIAIS1213195, 3-(1-oxo-4-(pentylthio)isoindolin-2-yl)piperidine-2,6-dione] | 1.48 ± 0.06 |  |
| O=C1CCC(N2Cc3c(SCCCCCN4CCOCC4)cccc3C2=O)C(=O)N1 (stereo not shown) [SIAIS1216061, 3-(4-((5-morpholinopentyl)thio)-1-oxoisoindolin-2-yl)piperidine-2,6-dione] | 2.52 ± 0.22 |  |
| O=C1CCC(N2Cc3c(SCCCCCN4CCNCC4)cccc3C2=O)C(=O)N1 (stereo not shown) [SIAIS1216063, 3-(1-oxo-4-((5-(piperazin-1-yl)pentyl)thio)isoindolin-2-yl)piperidine-2,6-dione] | 8.58 ± 2.58 |  |
| CN(C)CCCCCSc1cccc2c1CN(C1CCC(=O)NC1=O)C2=O (stereo not shown) [SIAIS1216089, 3-(4-((5-(dimethylamino)pentyl)thio)-1-oxoisoindolin-2-yl)piperidine-2,6-dione] | 2.83 ± 0.76 |  |
| CC(=O)NCCCCCSc1cccc2c1CN(C1CCC(=O)NC1=O)C2=O (stereo not shown) [SIAIS1216095, N-(5-((2-(2,6-dioxopiperidin-3-yl)-1-oxoisoindolin-4-yl)thio)pentyl)acetamide] | 1.53 ± 0.4 |  |
| CCN(CC)CCCCCSc1cccc2c1CN(C1CCC(=O)NC1=O)C2=O (stereo not shown) [SIAIS1216139, 3-(4-((5-(diethylamino)pentyl)thio)-1-oxoisoindolin-2-yl)piperidine-2,6-dione] | 4.06 ± 0.64 |  |
| CNCCCCCSc1cccc2c1CN(C1CCC(=O)NC1=O)C2=O (stereo not shown) [SIAIS1216141, 3-(4-((5-(methylamino)pentyl)thio)-1-oxoisoindolin-2-yl)piperidine-2,6-dione] | 12.6 ± 3.47 |  |
| CCN(CC)CCCCCCCCSc1cccc2c1CN(C1CCC(=O)NC1=O)C2=O (stereo not shown) [SIAIS1216147, 3-(4-((8-(diethylamino)octyl)thio)-1-oxoisoindolin-2-yl)piperidine-2,6-dione] | 0.19 ± 0.04 |  |
| O=C1CCC(N2Cc3c(SCCCO)cccc3C2=O)C(=O)N1 (stereo not shown) [SIAIS1216189, 3-(4-((3-hydroxypropyl)thio)-1-oxoisoindolin-2-yl)piperidine-2,6-dione] | 2.25 |  |
| CN(C)CCOCCOCCSc1cccc2c1CN(C1CCC(=O)NC1=O)C2=O (stereo not shown) [SIAIS1216195, 3-(4-((2-(2-(2-(dimethylamino)ethoxy)ethoxy)ethyl)thio)-1-oxoisoindolin-2-yl)piperidine-2,6-dione] | 4.96 ± 0.54 |  |
| O=C1CCC(N2Cc3c(SCCCCCCCCN4CCC(N5CCNCC5)CC4)cccc3C2=O)C(=O)N1 (stereo not shown) [SIAIS1220019, 3-(1-oxo-4-((8-(4-(piperazin-1-yl)piperidin-1-yl)octyl)thio)isoindolin-2-yl)piperidine-2,6-dione] | 2.08 |  |
| CCN(CC)CCCCCCCCCCSc1cccc2c1CN(C1CCC(=O)NC1=O)C2=O (stereo not shown) [SIAIS1220025, 3-(4-((10-(diethylamino)decyl)thio)-1-oxoisoindolin-2-yl)piperidine-2,6-dione] | 0.49 ± 0.05 |  |
| O=C1CCC(N2Cc3c(SCCCCCCN4CCOCC4)cccc3C2=O)C(=O)N1 (stereo not shown) [SIAIS1220027, 3-(4-((6-morpholinohexyl)thio)-1-oxoisoindolin-2-yl)piperidine-2,6-dione] | 0.7 |  |
